Test results reported in patent publication US8337851B2, “Methods of monitoring the efficacy of anti-CD40 antibodies in treating a subject for a CD40-expressing cancer” (Novartis AG, priority 2005, dated 2012).

What was measured:
soluble CD40 = soluble CD40 (Homo sapiens, UniProt P25942); experiment: ELISA-type binding to soluble CD40; settings: ELISA-type assays
Source text: 2, 2000, and PCT International Application No. PCT/US01/30857, also titled “Human Anti-CD40 Antibodies,” filed Oct. 2, 2001, both of which are herein incorporated by reference in their entirety.

[1] = system: B-CLL cells from patients; experiment: Western blot of CD40L-mediated signaling (p-IKK α/β, p-ERK, p-Akt, p-p38) in B-CLL cells; type: cell-based, human; settings: 10 μg/ml
Protocol: In these experiments, 1.0×10^6 B-CLL cells from patients were stimulated with 1 μg/ml sCD40L (Alexis Corporation, Bingham, Nottinghamshire, UK). […] Cells were collected at 0 and 20 minutes. Phosphorylated IKKα (Ser180) and IKK β (Ser 181) (p-IKK α/β; NFkB pathway), phosphorylated ERK (p-ERK), phosphorylated Akt (p-Akt), and phosphorylated p38 MAPK (p-p38) were detected in cell lysates by Western blot.

[2] = system: B-CLL cells from patients; experiment: RT-PCR timecourse of transcripts in B-CLL cells; type: cell-based, human; settings: 10 μg/mL with sCD40L, vs IgG1
Protocol: Cell pellets were collected at 0 hr (no CD40L), 1, 4 and 24 hr and lysed simultaneously at the end. RNA was isolated using the RNeasy kit, and cDNA was prepared using the ABI RT kit. Two-step RT-PCR was done with the genes shown in two separate reactions, based on TM of each set of oligos.

[3] = system: IM-9 tumor cells (a human multiple myeloma cell line); experiment: Staged orthotopic IM-9 xenograft survival model; type: in vivo, SCID mice; settings: 0.1, 1 or 10 mg/kg i.p. once a week from 7 days after implantation
Protocol: SCID mice were inoculated subcutaneously with IM-9 tumor cells (a human multiple myeloma cell line expressing both CD40 and CD20) in 50% […]™ at 5×10^6 cells per mouse. In unstaged models, treatment was initiated one day after tumor implantation. […] Alternatively, tumor-bearing mice were injected with bortezomib at 0.5 mg/kg or 1 mg/kg intravenously once a week. Data were analyzed using the log-rank test.
In staged models, treatment was initiated 7 days after tumor cell implantation. […] Alternatively, tumor-bearing mice were injected with bortezomib at 0.5 mg/kg intravenously. Data were analyzed using the log-rank test.

KMS-12-BM tumor = experiment: Human KMS-12-BM subcutaneous xenograft model; type: in vivo, SCID mice; settings: 42 days post cell implantation
Protocol: Female SCID mice were treated with 3Gy irradiation one day prior to implantation of tumor cells. On the day of implantation, cells were prepared at a concentration of 5×10^7 cells/ml in 50% matrigel. Cells were implanted subcutaneously over the right flank at 5×10^6 cells/100 μl/mouse. […] Antibodies were administered intraperitoneally once a week for 4 weeks. Bortezomib was administered intravenously twice a week for two weeks.

normal B cells = experiment: CD40L-induced cytokine secretion from normal B cells (Meso Scale Discovery); type: cell-based, human; settings: 10 μg/ml, 24 hours
Protocol: Cells (1×10^5 cells per well) were cultured in a 96-well plate in the presence or absence of CD40L (CD40 transfected, formaldehyde fixed CHO cells, 2×10^5 per well). […] Production of hIL-6, hIL-8, hIL-10, hTNF-α, hGM-CSF, hIL-1b, hIL-12p70, MCP-1, and MIP-1β was measured by Meso Scale Discovery® multi-array system (Meso Scale Discovery, Gaithersburg, Md.).

[4] = system: CLL cells obtained from patients with CLL; experiment: CD40L-induced production of VEGF in CLL cells; type: cell-based, human
Source text: In another experiment, CD40L-induced production of VEGF in normal B cells and CLL cells obtained from patients with CLL is examined in a manner similar to that described above.

B-CLL cells [5] = experiment: CellTiter-Glo viability of CLL patient PBMCs; type: cell-based, human; settings: 72 hours, 10 μg/ml
Protocol: Cell viability was determined after 72 hours using the CellTiter-Glo® Luminescent Cell Viability Kit (Promega, Madison, Wis.), which measures cellular ATP, and expressed as Relative Luminescence Units (RLU). Percent blockade was calculated as follows: […]

B-CLL cells [6] = experiment: cPARP flow cytometry of CLL patient PBMCs; type: cell-based, human; settings: 24 hours, 10 μg/ml
Protocol: [formula] cPARP analysis by flow cytometry was performed after 24 hours in culture. Cells were treated with FACSLysis buffer (BD Biosciences) and frozen. After fixation in 1% formaldehyde for 45 min, cells were washed and incubated with PE-conjugated mouse anti-human CD19 for 30 min at room temperature (RT). Cells were then permeabilized using 70% ethanol on ice for 30 min and stained for 30 min at RT with rabbit anti-human cPARP antibody or isotype control rabbit IgG along with PerCP-Cy5.5-labeled mouse anti-human CD5. This was followed by incubation with goat anti-rabbit IgG-AlexaFluor 647 for 30 min at RT before fixing with 1% formaldehyde and analyzing by flow cytometry. Percent blockade was calculated as follows: […]

primary B-CLL cells = experiment: Western blot of cPARP, Mcl-1, Bcl-xl in primary B-CLL cells; type: cell-based, human; settings: 10 μg/ml with rhsCD40L
Protocol: Whole cell lysates were prepared in RIPA lysis buffer (1% Nonidet P-40, 0.5% sodium deoxycholate, 0.1% Sodium dodecylsulfate in 1× phosphate buffered saline, pH 7.2). 10-20 μg of protein per sample were resolved on a 10% Tris-Glycine gel and transferred to nitrocellulose membranes, and membranes were probed using mAbs specific to human cPARP, Mcl-1, or Bcl-xl. The membranes were stripped and re-probed for β-actin and developed using ECL.

B-CLL cells [7] = experiment: Western blot of p-Akt, p-p38 MAPK, p-IKK α/β, p-ERK in B-CLL cells; type: cell-based, human
Protocol: To detect p38 MAPK, cells were cultured for 3 hr using the previously described conditions, with rhsCD40L being added in the last 20 min of incubation. Cells were processed as described above for data shown in FIG. 25. mAbs specific to human p-Akt and p-p38 MAPK were used to probe the resultant membranes, which were re-probed for AKT and p38 total protein, respectively.
Resultant membranes were probed using mAbs specific to human p-IKK α/β and p-ERK.

[8] = 3 hr culture, rhsCD40L in the last 20 min

Sequence of soluble CD40 (P25942 21-193 limits assumed): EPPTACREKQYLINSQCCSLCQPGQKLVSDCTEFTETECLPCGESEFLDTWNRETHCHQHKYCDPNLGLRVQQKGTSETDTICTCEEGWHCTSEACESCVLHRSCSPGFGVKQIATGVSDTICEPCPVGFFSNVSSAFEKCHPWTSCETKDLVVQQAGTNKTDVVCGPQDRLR

**Q.** For “CHIR-12.12: fully human anti-CD40 monoclonal antibody of the IgG1 isotype from hybridoma cell line 153.8E2.D10.D6.12.12 (ATCC PTA-5543)”, which “binding to soluble CD40” value (soluble CD40) is on record?
**A.** Its value is “bind soluble CD40”.

**Q.** What about the “phosphorylation of IKK α/β, ERK and Akt” value ([1]; 20 minutes, 1 μg/ml sCD40L, vs control IgG) of the same substance?
**A.** Its value is “significant inhibition of phosphorylation of IKK α/β, ERK, and Akt”.

**Q.** What about the “p38 MAPK activation” value ([1]; samples with constitutively activated p38 MAPK) of the same substance?
**A.** The value was “did not significantly inhibit p38 MAPK activation”.

**Q.** And the “RNA expression of CD40, CD40L, VEGF, TRAF2 and TRAF3” value ([2]; 1, 4, 24 hr)?
**A.** The value was “inhibition of RNA expression”.

**Q.** What about the “RNA expression of IL-6” value [2] of the same substance?
**A.** Its value is “no transcriptional changes”.

**Q.** And the “RNA expression of TRAF6 and Mcl-1” value [2]?
**A.** The value was “minor down-regulation”.

**Q.** And the “survival of tumor-bearing mice” value [3]?
**A.** The value was “prolonged survival of tumor-bearing mice”.

**Q.** What about the tumor volume reduction (KMS-12-BM tumor; 1 mg/kg i.p. once a week for 4 weeks, P>0.05) of the same substance?
**A.** The tumor volume reduction was 32%.

**Q.** What about the tumor volume reduction (KMS-12-BM tumor; 10 mg/kg i.p. once a week for 4 weeks, P<0.05) of the same substance?
**A.** Its tumor volume reduction is 35%.

**Q.** What about the “cytokine production with antibody alone (agonistic activity)” value (normal B cells; absence of CD40L) of the same substance?
**A.** Its value is “did not produce any of the cytokines above background levels”.

**Q.** What about the “inhibition of CD40L-induced MCP-1 secretion” value (normal B cells; Donor 1) of the same substance?
**A.** The value was 55.3 % inhibition.

**Q.** And the “inhibition of CD40L-induced MIP-1β secretion” value (normal B cells; Donor 1)?
**A.** The value was 54.4 % inhibition.

**Q.** What about the “inhibition of CD40L-induced hIL-6 secretion” value (normal B cells; Donor 1) of the same substance?
**A.** Its value is 92.2 % inhibition.

**Q.** And the “inhibition of CD40L-induced hIL-8 secretion” value (normal B cells; Donor 1)?
**A.** The value was 98.2 % inhibition.

**Q.** What about the “inhibition of CD40L-induced hIL-10 secretion” value (normal B cells; Donor 1) of the same substance?
**A.** The value was 90.5 % inhibition.

**Q.** And the “inhibition of CD40L-induced hTNF-α secretion” value (normal B cells; Donor 1)?
**A.** The value was 92.8 % inhibition.

**Q.** And the “inhibition of CD40L-induced MIP-1β secretion” value (normal B cells; Donor 2)?
**A.** Its value is 92 % inhibition.

**Q.** And the “inhibition of CD40L-induced hIL-6 secretion” value (normal B cells; Donor 2)?
**A.** The value was 99.9 % inhibition.

**Q.** And the “inhibition of CD40L-induced hIL-8 secretion” value (normal B cells; Donor 2)?
**A.** The value was 84.7 % inhibition.

**Q.** And the “inhibition of CD40L-induced hTNF-α secretion” value (normal B cells; Donor 2)?
**A.** The value was 97.4 % inhibition.

**Q.** And the “inhibition of CD40L-induced MCP-1 secretion” value (normal B cells; Donor 3)?
**A.** The value was 25.7 % inhibition.

**Q.** What about the “inhibition of CD40L-induced MIP-1β secretion” value (normal B cells; Donor 3) of the same substance?
**A.** The value was 92.5 % inhibition.

**Q.** What about the “inhibition of CD40L-induced hIL-6 secretion” value (normal B cells; Donor 3) of the same substance?
**A.** The value was 99.3 % inhibition.

**Q.** And the “inhibition of CD40L-induced hIL-8 secretion” value (normal B cells; Donor 3)?
**A.** Its value is 99.5 % inhibition.

**Q.** What about the “inhibition of CD40L-induced hIL-10 secretion” value (normal B cells; Donor 3) of the same substance?
**A.** Its value is 94.4 % inhibition.

**Q.** What about the “inhibition of CD40L-induced hTNF-α secretion” value (normal B cells; Donor 3) of the same substance?
**A.** The value was 98.5 % inhibition.

**Q.** What about the “CD40L-induced production of VEGF” value [4] of the same substance?
**A.** The value was “inhibit CD40L-induced production of VEGF”.

**Q.** And the “blockade of CD40L-promoted survival” value (B-CLL cells [5])?
**A.** Its value is “in each case, these effects were blocked”.

**Q.** And the “blockade of CD40L-promoted survival” value (B-CLL cells [6])?
**A.** Its value is “in each case, these effects were blocked”.

**Q.** And the “cPARP levels and Mcl-1 and Bcl-xl expression (Western blot)” value (primary B-CLL cells)?
**A.** Its value is “blocked the CD40L-mediated decrease of cPARP levels and CD40L-mediated increase of Mcl-1 and Bcl-xl expression”.

**Q.** And the “CD40L-induced phosphorylation of IKK α/β and ERK ½” value (B-CLL cells [7]; [8])?
**A.** Its value is “inhibited the CD40L-induced phosphorylation of IKK α/β and ERK ½”.

**Q.** What about the “rhsCD40L-enhanced phosphorylation of p38 MAPK” value (B-CLL cells [7]; [8]) of the same substance?
**A.** The value was “blocked this effect”.

**Q.** What about the “CD40L activation of the AKT pathway (p-Akt)” value (B-CLL cells [7]; in a number of samples) of the same substance?
**A.** The value was “blocked this effect”.
